{
  "source": "paper PMC9696974",
  "about": "(Pharmaceutics, 2022)",
  "key": {"ct-DNA": {"system": "ct-DNA", "assay": "Fluorimetric titration with ct-DNA, Scatchard equation", "format": "binding, calf", "parameters": "key: The changes were too small to allow an accurate calculation of the binding constant", "conditions": "I = 0.05 M", "procedure": "(§1) Experiments were conducted in an aqueous buffer solution (pH = 7.0 or pH= 5.0, I = 0.05 M, sodium cacodylate buffer). For the UV-Vis spectra were used Varian Cary 100 Bio spectrometer, for fluorescence spectra we used the Varian Cary Eclipse fluorimeter and for CD spectra we used the JASCO J815 spectropolarimeter, all conducted at 25.0 °C using appropriate quartz cuvettes (path length: 1 cm).\nPolynucleotides were purchased as noted: poly dAdT-poly dAdT, poly dGdC-poly dGdC, poly A-poly U (ds-RNA), (Sigma-Aldrich, Schnelldorf, Germany), calf thymus (ct)-DNA (Sigma-Aldrich, Schnelldorf, Germany) and dissolved in sodium cacodylate buffer, I = 0.05 M, pH = 7.0. The ct-DNA was sonicated and filtered through a 0.45 µm filter to obtain mostly short (ca. 100 base pairs) rod-like B-helical DNA fragments. The concentration of DNA or RNA was determined spectroscopically as the c(nucleobase) using producer-provided molar extinction coefficients.\nFortunately, strong emission from the compounds studied allowed fluorimetric titrations to be performed at much lower concentrations of the dyes (c = 5 × 10^−8 M), thus preventing precipitation of non-methylated 1 or 2, and allowing for the collection of numerous data points at excess of DNA/RNA binding sites over c(dye). […] Intriguingly, mixed sequence ct-DNA caused emission quenching of 1M at an excess of dye over ct-DNA (r > 0.1), and such quenching could be attributed to aggregation of 1M along DNA, while at an excess of ct-DNA over dye (r << 0.1), emission increased. The emission of 2M was indiscriminately quenched by all ds-DNA/RNA (Figure 2d).\n(§2) Processing of fluorimetric titrations by means of the Scatchard equation [56, 57] yielded binding constants (Table 2). […] Affinities of 1 and 2 toward BSA were the same at both pH values, supporting the conclusion that neutral forms of 1 and 2 were bound."}, "A549 cells [1]": {"system": "A549 cells", "assay": "MTT cell viability assay, A549, with or without UV light", "format": "cell-based, human", "conditions": "for Ratio of IC50 non-irradiated vs UV-irradiated: A549; for Cytotoxic effect: A549, 10 μM and 1 μM, without UV; for Cytotoxic effect / IC50: MTT; for IC50: Homo sapiens, light or radiation study, 72 h", "procedure": "Cells. Commercially available from American Type Culture Collection (ATCC), human epithelial lung adenocarcinoma A549 (ATCC® CCL-185™) and human normal lung fibroblast WI-38 (ATCC® CCL-75™) were grown according to supplier’s conditions, namely in Dulbecco Modified Eagle’s Medium (DMEM, Sigma Aldrich, St. Louis, MO, USA) supplemented with 10% of fetal bovine serum (FBS, Sigma Aldrich, USA). Cells were incubated in the cell incubator (Thermo Fischer Scientific, Waltham, MA, USA) at 37 °C and 5% CO2 in a humidified atmosphere.\nCell viability assay. In order to obtain a 10 mM stock solution chemical compounds (2M, 1, and 1M) were sterilely diluted in an appropriate volume of dimethyl sulfoxide solution (DMSO, Gram-Mol, Zagreb, Croatia). Solutions were kept in the dark and stored at 4 °C. The cytotoxic effects of each compound were assayed on A549 and WI-38 cells. […] Briefly, cells were seeded in 96-well tissue culture plates and 24 h later treated with 2M, 1, or 1M in the concentration range of 10–0.1 μM. Cells treated with the same dilutions of DMSO represented the control, while cells treated only with DMEM (10% FBS) represented the negative control. After 72 h, the media was removed, MTT solution was added into each well, and the plate was incubated (37 °C, 5% CO2) for 3 h. The resulting MTT-formazan products were dissolved using DMSO, and their absorbance at 600 nm was measured using a microplate reader.\nFor determining the effect of UV exposure, cells were seeded on two plates and treated with working solutions of the respective compounds as previously described. Plates were incubated (37 °C, 5% CO2) for 90 min, allowing the compounds to enter the cells. Then, one plate was exposed to UV light (Luzchem reactor, 350 nm, 8 lamps, in total 8 W, dose 50.6 mWm^−2; ~18 cm lamp to cell-plate) for 5 min, 3 days in a row at the same time each day, while the other plate was left in the cell incubator in the dark and served as a control."}, "A549 cells [2]": {"system": "A549 cells", "assay": "Detection of total ROS (DCF, flow cytometry)", "format": "cell-based, human", "conditions": "A549, 10 µM", "procedure": "Detection of total ROS. For detecting total ROS, A549 cells were seeded in 12-well tissue culture plates and 24 h after were treated with a 10 μM working solution of the respective compound and incubated for 90 min (37 °C, 5% CO2), allowing the compound to enter to cells. The same dilution of DMSO served as a control, while H2O2 (0.002%) was used as a positive control. One plate was irradiated with UV light (350 nm) for 5 min, and was analysed immediately after UV exposure. The plate that was not irradiated with UV light served as the control, and was incubated in the cell incubator (37°C, 5% CO2) during the whole experiment. Subsequently, cells were washed with PBS, trypsinised, resuspended with cold PBS supplemented with 10% FBS and centrifuged for 5 min (RT, 1100 g). Cell pellets were resuspended and washed again, but this time with cold PBS supplemented with 1% FBS and centrifuged for 5 min (RT, 1100 g). After the second washing, cell pellets were resuspended in 5 μM 2′,7′–dichloro-fluorescin diacetate (H2DCFDA, Sigma, USA) which is converted to dichlorofluorescein (DCF) in contact with ROS. Unstained cells were resuspended in PBS supplemented with 1% FBS. Cells were then analysed by flow cytometry using FACSCalibur (BD Biosciences, San Jose, CA, USA)."}, "BSA": {"target": "BSA (Bos taurus, UniProt P02769)", "sequence (P02769 25-607)": "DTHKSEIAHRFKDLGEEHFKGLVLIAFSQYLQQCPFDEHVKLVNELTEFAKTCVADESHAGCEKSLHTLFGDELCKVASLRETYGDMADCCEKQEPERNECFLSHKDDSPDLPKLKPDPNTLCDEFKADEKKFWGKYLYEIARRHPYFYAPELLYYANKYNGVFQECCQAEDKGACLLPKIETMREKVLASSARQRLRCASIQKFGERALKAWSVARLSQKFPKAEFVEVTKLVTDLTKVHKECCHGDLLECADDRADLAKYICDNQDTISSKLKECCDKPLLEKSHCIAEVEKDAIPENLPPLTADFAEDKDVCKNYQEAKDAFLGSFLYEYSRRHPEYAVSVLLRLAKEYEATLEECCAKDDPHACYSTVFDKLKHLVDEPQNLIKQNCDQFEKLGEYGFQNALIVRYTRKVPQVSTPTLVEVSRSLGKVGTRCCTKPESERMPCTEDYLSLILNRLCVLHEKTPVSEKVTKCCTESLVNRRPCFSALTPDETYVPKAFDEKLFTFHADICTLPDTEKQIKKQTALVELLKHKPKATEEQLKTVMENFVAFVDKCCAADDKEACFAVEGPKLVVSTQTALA", "assay": "Fluorimetric titration with BSA, Scatchard equation", "format": "binding, bovine", "conditions": "I = 0.05 M; for Kd: pH 7, sodium cacodylate buffer, read-out: Binding constant logKs BSA (converted)", "procedure": "as §1\nAs the pharmacokinetic properties of small molecules often depend on a binding affinity toward transport proteins (such as serum albumin), we performed fluorimetric titrations with BSA. The emission of both 1M and 2M (Supplementary Information, Figures S15 and S16), was strongly quenched, with compound 2M showing a lower affinity in comparison to ds-DNA/RNA, while the affinity of 1M was similar to that towards ds-DNA/RNA (Table 2).\nas §2"}, "A549 cells [3]": {"system": "A549 cells", "assay": "Cell size (FSC) and complexity (SSC) by flow cytometry", "format": "cell-based, human", "conditions": "A549, 10 µM, UV irradiation", "procedure": "To corroborate further the observed phenomena, we determined morphology changes in 2M-, 1-, and 1M-treated A549 cells after exposing them to UV light. Morphology changes were determined by flow cytometry, which allows the assessment of cell size (FSC) and complexity (SSC). […] This increase was the most pronounced in cells treated with 1 and 1M."}, "[4]": {"conditions": "A549, UV-irradiated (350 nm, 5 min, 3 days in a row)"}},
  "data": [
    {"smiles": "C[n+]1ccc(-c2cc3ccc4cccc5ccc(c2)c3c45)cc1", "note": "[1M, 2-para-N-methylpyridinium pyrene]", "values": [
      {"measurement": "Binding constant logKs ct-DNA", "setting": "ct-DNA; pH 7, sodium cacodylate buffer", "result": 5.5},
      {"measurement": "Ratio of IC50 non-irradiated vs UV-irradiated", "setting": "A549 cells [1]", "result": 15},
      {"measurement": "Cytotoxic effect", "setting": "A549 cells [1]", "result": "considerable cytotoxic effects"},
      {"measurement": "IC50", "setting": "A549 cells [1]; [4]", "result": 100, "unit": "nM"},
      {"measurement": "IC50", "setting": "A549 cells [1]; A549, non-irradiated", "result": 1500, "unit": "nM"},
      {"measurement": "Intracellular ROS production", "setting": "A549 cells [2]; UV light 350 nm 5 min", "result": "immediate and strong increase in ROS production"},
      {"measurement": "Intracellular ROS production", "setting": "A549 cells [2]; kept in dark", "result": "induced the production of intracellular ROS"},
      {"measurement": "Kd", "setting": "BSA", "result": 3980, "unit": "nM"},
      {"measurement": "Cell size (FSC)", "setting": "A549 cells [3]", "result": "increase in cell size"}
    ]},
    {"smiles": "C[n+]1ccc(-c2cc3ccc4cc(-c5cc[n+](C)cc5)cc5ccc(c2)c3c45)cc1", "note": "[2M]", "values": [
      {"measurement": "Binding constant logKs ct-DNA", "setting": "ct-DNA; pH 7, sodium cacodylate buffer", "result": 8.8},
      {"measurement": "Ratio of IC50 non-irradiated vs UV-irradiated", "setting": "A549 cells [1]", "result": "four times"},
      {"measurement": "Cytotoxic effect", "setting": "A549 cells [1]", "result": "considerable cytotoxic effects"},
      {"measurement": "IC50", "setting": "A549 cells [1]; [4]", "result": 2000, "unit": "nM"},
      {"measurement": "IC50", "setting": "A549 cells [1]; A549, non-irradiated", "result": 8000, "unit": "nM"},
      {"measurement": "Intracellular ROS production", "setting": "A549 cells [2]; UV light 350 nm 5 min", "result": "immediate and strong increase in ROS production"},
      {"measurement": "Kd", "setting": "BSA", "result": 126, "unit": "nM"},
      {"measurement": "Cell size (FSC)", "setting": "A549 cells [3]", "result": "increase in cell size"}
    ]},
    {"smiles": "c1cc2ccc3cc(-c4ccncc4)cc4ccc(c1)c2c34", "note": "[compound 1]", "values": [
      {"measurement": "Binding constant logKs ct-DNA", "setting": "ct-DNA; pH 5, sodium cacodylate buffer", "result": 5.3},
      {"measurement": "Binding constant logKs ct-DNA", "setting": "ct-DNA; pH 7, sodium cacodylate buffer", "result": "b"},
      {"measurement": "Ratio of IC50 non-irradiated vs UV-irradiated", "setting": "A549 cells [1]", "result": "four times"},
      {"measurement": "Cytotoxic effect", "setting": "A549 cells [1]", "result": "considerable cytotoxic effects"},
      {"measurement": "IC50", "setting": "A549 cells [1]; [4]", "result": 2000, "unit": "nM"},
      {"measurement": "IC50", "setting": "A549 cells [1]; A549, non-irradiated", "result": 8000, "unit": "nM"},
      {"measurement": "Intracellular ROS production", "setting": "A549 cells [2]; UV light 350 nm 5 min", "result": "immediate and strong increase in ROS production"},
      {"measurement": "Binding constant logKs BSA", "setting": "BSA; pH 5, sodium cacodylate buffer", "result": 5.5},
      {"measurement": "Kd", "setting": "BSA", "result": 3160, "unit": "nM"},
      {"measurement": "Cell size (FSC)", "setting": "A549 cells [3]", "result": "increase in cell size"}
    ]}
  ]
}
